Experimental data reported in ChEMBL document CHEMBL5252631, “A pharmacophore-based approach to demonstrating the scope of alcohol dehydrogenases” (Bioorg Med Chem, 2023).

Assays:
[1] = Substrate activity at ADH105 (unknown origin) assessed as specific enzyme activity using NADH as cofactor at 2.5 to 10 mM measured for 30 mins in presence of 20% hexane-Tris HCL buffer by UV-Vis spectroscopy analysis; conditions: dose 2.5-10 mM
[2] = Substrate activity at ADH101 (unknown origin) assessed as specific enzyme activity using NADH as cofactor at 2.5 to 10 mM measured for 30 mins in presence of 20% hexane-Tris HCL buffer by UV-Vis spectroscopy analysis; conditions: Homo sapiens, dose 2.5-10 mM
[3] = Substrate activity at ADH105 (unknown origin) assessed as specific enzyme activity using NADH as cofactor at 2.5 to 10 mM measured for 30 mins in presence of Tris HCL buffer by UV-Vis spectroscopy analysis; conditions: Homo sapiens, dose 2.5-10 mM
[4] = Substrate activity at ADH101 (unknown origin) assessed as specific enzyme activity using NADH as cofactor at 2.5 to 10 mM measured for 30 mins in presence of Tris HCL buffer by UV-Vis spectroscopy analysis; conditions: dose 2.5-10 mM
[5] = Substrate activity at ADH20 (unknown origin) assessed as specific enzyme activity using NADPH as cofactor at 2.5 to 10 mM measured for 30 mins in presence of Tris HCL buffer by UV-Vis spectroscopy analysis; conditions: Homo sapiens, dose 2.5-10 mM
[6] = Substrate activity at ADH150 (unknown origin) assessed as specific enzyme activity using NADPH as cofactor at 2.5 to 10 mM measured for 30 mins in presence of Tris HCL buffer by UV-Vis spectroscopy analysis; conditions: Homo sapiens, dose 2.5-10 mM
[7] = Substrate activity at ADH19 (unknown origin) assessed as specific enzyme activity using NADPH as cofactor at 2.5 to 10 mM measured for 30 mins in presence of Tris HCL buffer by UV-Vis spectroscopy analysis; conditions: Homo sapiens, dose 2.5-10 mM
[8] = Substrate activity at ADH61 (unknown origin) assessed as specific enzyme activity using NADPH as cofactor at 2.5 to 10 mM measured for 30 mins in presence of Tris HCL buffer by UV-Vis spectroscopy analysis; conditions: Homo sapiens, dose 2.5-10 mM

| Structure (SMILES) | Activity [1] [nmol/min/mg] | Activity [2] [nmol/min/mg] | Activity [3] [nmol/min/mg] | Activity [4] [nmol/min/mg] | Activity [5] [nmol/min/mg] | Activity [6] [nmol/min/mg] | Activity [7] [nmol/min/mg] | Activity [8] [nmol/min/mg] |
| --- | --- | --- | --- | --- | --- | --- | --- | --- |
| CC(=O)c1ccc(NS(C)(=O)=O)cc1 | 203 | – | – | – | – | – | – | – |
| CC(=O)c1ccccc1Br | 39.5 | 38 | 6.37 | 75.1 | – | – | – | – |
| CC(=O)c1ccccn1 | 60.3 | 35.5 | 70.4 | 22.2 | – | – | – | – |
| CC(=O)c1cccc(O)c1 | 157 | 14.8 | 82.4 | 4.76 | – | – | – | – |
| CC(=O)c1cccc(Br)c1 | 142 | 12.2 | 1.9 | 19.9 | – | – | – | – |
| CC(=O)c1ccc(Br)cc1O | 27.2 | 10 | – | 112 | – | – | – | – |
| O=C(CCl)c1ccc(F)c(F)c1 | 112 | 87.1 | 131 | 83.1 | – | – | – | – |
| COc1cc(OC)cc(C(C)=O)c1 | 363 | 59.2 | – | – | – | – | – | – |
| CCOc1ccc(C(C)=O)cc1 | 196 | 19.9 | 81.1 | 4.37 | – | – | – | – |
| O=C(CBr)c1ccccc1 | 337 | 89.2 | 18.7 | 44.6 | – | – | – | – |
| O=C(c1ccccc1)c1ccccc1 | 14.3 | 73.9 | 12.8 | 35.7 | 41.1 | 69.9 | – | – |
| CC(=O)c1ccc(Br)cc1F | 366 | 57.7 | – | 15.9 | – | – | – | – |
| CC(=O)c1ccc(Br)c(F)c1 | 242 | 103 | – | 46.3 | – | – | – | – |
| CC(=O)c1ccc(F)nc1 | 137 | 51 | 182 | 24.7 | – | – | – | – |
| CCCCCCCCC(C)=O | 37.1 | 25.7 | 8.95 | 39.5 | – | – | – | – |
| CC(=O)c1ccc2ccccc2c1 | 54 | 37 | – | 7.68 | – | – | – | – |
| COc1ccc(C(C)=O)cc1OC | 220 | 59.8 | – | – | – | – | – | – |
| O=c1[nH]c(=O)c2nc[nH]c2[nH]1 | 15.9 | – | 9.28 | 319 | – | – | – | – |
| CC(=O)c1ccc(B2OC(C)(C)C(C)(C)O2)cc1 | 87 | 465 | – | – | – | – | – | – |
| CC(=O)c1ccc(Br)nc1 | 269 | 33.2 | – | – | – | – | – | – |

| Structure (SMILES) | Activity [1] [nmol/min/mg] | Activity [2] [nmol/min/mg] | Activity [3] [nmol/min/mg] | Activity [4] [nmol/min/mg] | Activity [5] [nmol/min/mg] | Activity [6] [nmol/min/mg] | Activity [7] [nmol/min/mg] | Activity [8] [nmol/min/mg] |
| --- | --- | --- | --- | --- | --- | --- | --- | --- |
| CC(=O)c1cccc(C#N)c1 | 173 | 57.4 | – | – | – | – | – | – |
| CC(=O)c1cc(F)ccc1O | – | 42.8 | – | – | – | – | – | – |
| COc1cc(C(C)=O)cc(OC)c1OC | 89.9 | – | 154 | 11.7 | – | – | – | – |
| O=C(c1ccccc1)C(F)(F)F | 29.4 | 46.2 | 19.1 | 9.22 | – | – | – | – |
| CC(=O)c1cc(C(F)(F)F)cc(C(F)(F)F)c1 | 57.3 | 17.4 | 29.6 | 4.51 | – | – | – | – |
| CC(=O)/C=C/c1ccccc1 | 62.1 | 67.2 | 6.97 | 60.7 | – | – | – | – |
| CC(=O)c1ccc(C(F)(F)F)nc1 | 210 | 80.9 | – | – | – | – | – | – |
| CC(=O)c1cnc2ccccc2c1 | 229 | 13.7 | – | – | – | – | – | – |
| CC(=O)c1ccc(Br)cc1 | 158 | 73.1 | 56.1 | 38.1 | – | – | – | – |
| CC(=O)c1ccccc1O | – | – | 23.1 | 11.3 | – | – | – | – |
| CC(=O)c1cnccn1 | 185 | 53.2 | – | – | – | – | – | – |
| CC(C)(C)NCC(=O)c1cc(Cl)c(N)c(Cl)c1 | 34.6 | – | – | – | 18.8 | 6.55 | 10.4 | 29 |
| CC(=O)C1CC1 | 98.2 | 82.8 | – | – | – | – | – | – |
| O=C1CN2CCC1CC2 | 23.4 | 85.3 | 13 | – | – | – | – | – |
| CC(=O)c1nccn1C | 20.7 | 14.7 | – | – | – | – | – | – |
| CC(=O)c1ccccc1 | 99.1 | 54.1 | 142 | 43.1 | – | – | – | – |
| COc1ccc2c(c1)CCCC2=O | 36 | – | 9 | 6.9 | 31.3 | 7.83 | 14.3 | 56.4 |
| COc1ccc(C(C)=O)cc1 | 221 | 24.6 | – | – | – | – | – | – |
| CC(=O)Cc1ccccc1 | 239 | 22.2 | 274 | 5.98 | – | – | – | – |
| CC(=O)CCc1ccccc1 | 364 | 95.7 | – | 109 | – | – | – | – |

| Structure (SMILES) | Activity [1] [nmol/min/mg] | Activity [2] [nmol/min/mg] | Activity [3] [nmol/min/mg] | Activity [4] [nmol/min/mg] | Activity [5] [nmol/min/mg] | Activity [6] [nmol/min/mg] | Activity [7] [nmol/min/mg] | Activity [8] [nmol/min/mg] |
| --- | --- | --- | --- | --- | --- | --- | --- | --- |
| COc1ccccc1C(C)=O | 83 | – | 13.4 | 2.46 | – | – | – | – |
| CNCC(=O)c1cccc(O)c1 | 17.4 | 12.4 | 20.8 | – | 67.2 | 38.6 | 6.78 | – |
| CC(=O)c1ccc(F)cc1 | 122 | 22.9 | 86.4 | 26.4 | – | – | – | – |
| CC(=O)c1ccc(C[C@H](N)C(=O)O)cc1 | 62.2 | 10.2 | – | – | 55.7 | 33.7 | 7.76 | 123 |
| COc1cccc(C(C)=O)c1 | 397 | 13.8 | – | – | – | – | – | – |
| CC(=O)C1CCCC1 | 218 | 123 | – | – | – | – | – | – |
| CC(=O)c1ccc([N+](=O)[O-])cc1 | 593 | 130 | – | 99.9 | – | – | – | – |
| CC(=O)c1ccc(I)cc1 | 117 | 51.3 | – | – | – | – | – | – |
| CC(=O)c1cc[nH]n1 | 20.7 | 5.6 | – | – | 24.1 | 11.8 | 10.3 | 10.7 |
| CC(=O)c1ccc(O)cc1 | 31.5 | – | 39.5 | – | – | – | 12.8 | 12.7 |
| CC(=O)c1cncnc1 | 50.5 | 45.2 | – | – | – | – | – | – |
| CC(=O)c1cccnc1 | 163 | 34 | 121 | 9.45 | – | – | – | – |
| CC(=O)C1CCCCC1 | 112 | 52.3 | 233 | 167 | – | – | – | – |
| COc1ccc2[nH]cc(CCNC(C)=O)c2c1 | 21.7 | – | – | – | – | – | – | – |
| CC(=O)c1ccc(Cl)nc1 | 92 | 62.5 | 371 | 32.2 | – | – | – | – |
| CC(=O)c1ccc2c(c1)OCO2 | 189 | 34.2 | 70.1 | 17.7 | – | – | – | – |
| CCc1ccc(OC)c(C(C)=O)c1 | 64 | 52.9 | 14.1 | 49.8 | – | – | – | – |
| CC(=O)c1ccc(N)cc1 | 80.4 | 43.9 | 21.3 | 5.03 | – | – | – | – |
